# pEC50: −log10 of the molar value.
# Assays:
# Test in all cases: HEK293 SEAP reporter assay, other TLRs (Biological Example 3)
# Type in all cases: cell-based
# [1] = molecular target: T1, mouse TLR7 (Mus musculus, UniProt P58681); conditions: 16 hrs, * = Estimated
# T1 construct: host or cells: HEK293
# T1 sequence (P58681 27-1050): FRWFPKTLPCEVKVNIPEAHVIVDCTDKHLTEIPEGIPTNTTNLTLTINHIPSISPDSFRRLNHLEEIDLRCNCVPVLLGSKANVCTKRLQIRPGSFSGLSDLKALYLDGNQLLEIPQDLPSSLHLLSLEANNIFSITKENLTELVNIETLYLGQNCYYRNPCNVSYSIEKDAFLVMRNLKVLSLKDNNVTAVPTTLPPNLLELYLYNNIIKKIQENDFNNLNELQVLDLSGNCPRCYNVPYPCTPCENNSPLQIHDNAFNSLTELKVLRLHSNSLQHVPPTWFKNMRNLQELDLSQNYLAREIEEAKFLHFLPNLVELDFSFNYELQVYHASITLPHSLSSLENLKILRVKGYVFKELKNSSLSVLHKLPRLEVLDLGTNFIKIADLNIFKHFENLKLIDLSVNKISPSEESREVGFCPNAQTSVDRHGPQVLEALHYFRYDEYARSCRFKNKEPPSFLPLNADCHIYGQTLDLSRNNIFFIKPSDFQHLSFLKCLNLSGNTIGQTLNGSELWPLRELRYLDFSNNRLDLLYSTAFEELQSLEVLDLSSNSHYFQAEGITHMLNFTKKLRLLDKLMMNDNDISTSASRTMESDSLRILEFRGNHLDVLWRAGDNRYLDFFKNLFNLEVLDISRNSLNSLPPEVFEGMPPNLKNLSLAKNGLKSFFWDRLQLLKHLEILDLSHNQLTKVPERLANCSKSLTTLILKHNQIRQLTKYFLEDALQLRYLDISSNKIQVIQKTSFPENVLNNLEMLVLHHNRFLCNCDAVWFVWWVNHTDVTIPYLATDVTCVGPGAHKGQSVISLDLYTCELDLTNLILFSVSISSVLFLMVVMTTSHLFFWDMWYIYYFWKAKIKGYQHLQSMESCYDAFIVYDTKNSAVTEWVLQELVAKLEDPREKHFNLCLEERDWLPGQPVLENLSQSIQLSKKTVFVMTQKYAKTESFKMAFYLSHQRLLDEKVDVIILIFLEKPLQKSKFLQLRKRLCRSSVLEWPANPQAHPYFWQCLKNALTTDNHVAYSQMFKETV
# Excerpt: (§1) In this example, the activity of the Compound 1 to stimulate different human and mouse TLR pathways was investigated on HEK293 cells transfected with inducible SEAP (secreted embryonic alkaline phosphatase) reporter genes and also expressing different human TLRs (TLR2, TLR3, TLR4, TLR5, TLR7, TLR8, TLRS) or mouse TLRs (TLR2, TLR3, TLR4, TLR5, TLR7, TLR8, TLR13). Compound A
# (§2) HEK293 reporter cell lines were purchased from Invivogen and cell lines were maintained in manufacture recommended culture medium with required supplemental antibiotics. On the day of assay, the cells were harvested with Accutase and counted by the Vi-CELL Cell Viability Analyzers. Cells were re-suspended in HEK blue detection medium and a total of 10000 cells were seeded in each well of a 384-well flat bottom plate. […] Assay plates were cultured at 37° C. in a CO2 incubator for 16 hrs. HEK-Blue™ Detection medium changes to a purple/blue color in the presence of secreted SEAP, which can be detected by spectrophotometry at 620-655 nm. Data was fitted with non-linear regression analysis, using a log(inhibitor) vs. response-variable slope, 3-parameter fit with GraphPad Prism.
# [2] = molecular target: T2, human TLR5 (Homo sapiens, UniProt O60602); conditions: 16 hrs, up to 1 μM
# T2 construct: host or cells: HEK293
# Excerpt: as §1, §2
# [3] = molecular target: T3, human TLR2 (Homo sapiens, UniProt O60603); conditions: 16 hrs, up to 1 μM
# T3 construct: host or cells: HEK293
# Excerpt: as §1, §2
# [4] = molecular target: T4, mouse TLR3 (Mus musculus, UniProt Q99MB1); conditions: 16 hrs, up to 1 μM
# T4 construct: host or cells: HEK293
# T4 sequence (Q99MB1 26-905): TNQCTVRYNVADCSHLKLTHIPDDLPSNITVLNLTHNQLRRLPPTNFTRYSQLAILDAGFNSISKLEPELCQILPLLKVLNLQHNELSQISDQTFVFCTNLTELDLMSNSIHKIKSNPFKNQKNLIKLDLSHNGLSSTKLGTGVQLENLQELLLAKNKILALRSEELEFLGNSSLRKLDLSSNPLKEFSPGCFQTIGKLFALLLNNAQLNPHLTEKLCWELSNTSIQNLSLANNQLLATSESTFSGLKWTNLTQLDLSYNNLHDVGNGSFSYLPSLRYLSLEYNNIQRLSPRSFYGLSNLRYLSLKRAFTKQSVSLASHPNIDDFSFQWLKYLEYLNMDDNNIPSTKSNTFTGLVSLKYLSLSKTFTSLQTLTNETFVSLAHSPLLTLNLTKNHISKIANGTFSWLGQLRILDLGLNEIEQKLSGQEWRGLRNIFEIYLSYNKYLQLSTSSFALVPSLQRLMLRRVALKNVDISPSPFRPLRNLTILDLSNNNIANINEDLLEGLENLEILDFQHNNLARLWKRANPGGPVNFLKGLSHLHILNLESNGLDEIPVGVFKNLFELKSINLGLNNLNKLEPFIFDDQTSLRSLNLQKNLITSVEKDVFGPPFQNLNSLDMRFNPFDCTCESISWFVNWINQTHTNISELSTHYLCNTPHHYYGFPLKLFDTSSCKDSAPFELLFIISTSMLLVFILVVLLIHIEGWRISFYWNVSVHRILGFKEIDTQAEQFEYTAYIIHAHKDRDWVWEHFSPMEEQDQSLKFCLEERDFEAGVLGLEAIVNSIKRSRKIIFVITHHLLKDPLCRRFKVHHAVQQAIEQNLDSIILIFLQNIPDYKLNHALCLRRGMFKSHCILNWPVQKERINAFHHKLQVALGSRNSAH
# Excerpt: as §1, §2
# T2 sequence (O60602 21-858): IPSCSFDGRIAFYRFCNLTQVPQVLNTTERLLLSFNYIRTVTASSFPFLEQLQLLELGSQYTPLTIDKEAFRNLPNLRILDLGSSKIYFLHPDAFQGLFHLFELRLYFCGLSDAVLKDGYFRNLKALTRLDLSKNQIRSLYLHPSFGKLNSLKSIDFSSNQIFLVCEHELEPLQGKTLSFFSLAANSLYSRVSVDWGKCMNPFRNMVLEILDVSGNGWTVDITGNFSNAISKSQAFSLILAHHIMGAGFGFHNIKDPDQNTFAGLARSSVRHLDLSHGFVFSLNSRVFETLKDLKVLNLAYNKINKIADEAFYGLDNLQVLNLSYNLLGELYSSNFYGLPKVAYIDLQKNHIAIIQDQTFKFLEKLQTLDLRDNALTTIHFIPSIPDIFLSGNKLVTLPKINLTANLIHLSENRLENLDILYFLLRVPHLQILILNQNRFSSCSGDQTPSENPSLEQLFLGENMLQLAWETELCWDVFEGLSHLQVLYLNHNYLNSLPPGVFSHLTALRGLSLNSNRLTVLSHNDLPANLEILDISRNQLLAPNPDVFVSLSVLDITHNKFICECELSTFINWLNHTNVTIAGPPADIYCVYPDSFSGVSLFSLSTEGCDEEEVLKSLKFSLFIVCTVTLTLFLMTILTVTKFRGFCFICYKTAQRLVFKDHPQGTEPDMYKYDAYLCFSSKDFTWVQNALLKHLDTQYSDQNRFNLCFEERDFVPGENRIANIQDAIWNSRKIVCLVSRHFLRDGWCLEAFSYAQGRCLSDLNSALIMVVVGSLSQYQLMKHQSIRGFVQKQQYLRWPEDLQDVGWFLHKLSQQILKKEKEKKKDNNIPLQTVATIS
# T3 sequence (O60603 21-784): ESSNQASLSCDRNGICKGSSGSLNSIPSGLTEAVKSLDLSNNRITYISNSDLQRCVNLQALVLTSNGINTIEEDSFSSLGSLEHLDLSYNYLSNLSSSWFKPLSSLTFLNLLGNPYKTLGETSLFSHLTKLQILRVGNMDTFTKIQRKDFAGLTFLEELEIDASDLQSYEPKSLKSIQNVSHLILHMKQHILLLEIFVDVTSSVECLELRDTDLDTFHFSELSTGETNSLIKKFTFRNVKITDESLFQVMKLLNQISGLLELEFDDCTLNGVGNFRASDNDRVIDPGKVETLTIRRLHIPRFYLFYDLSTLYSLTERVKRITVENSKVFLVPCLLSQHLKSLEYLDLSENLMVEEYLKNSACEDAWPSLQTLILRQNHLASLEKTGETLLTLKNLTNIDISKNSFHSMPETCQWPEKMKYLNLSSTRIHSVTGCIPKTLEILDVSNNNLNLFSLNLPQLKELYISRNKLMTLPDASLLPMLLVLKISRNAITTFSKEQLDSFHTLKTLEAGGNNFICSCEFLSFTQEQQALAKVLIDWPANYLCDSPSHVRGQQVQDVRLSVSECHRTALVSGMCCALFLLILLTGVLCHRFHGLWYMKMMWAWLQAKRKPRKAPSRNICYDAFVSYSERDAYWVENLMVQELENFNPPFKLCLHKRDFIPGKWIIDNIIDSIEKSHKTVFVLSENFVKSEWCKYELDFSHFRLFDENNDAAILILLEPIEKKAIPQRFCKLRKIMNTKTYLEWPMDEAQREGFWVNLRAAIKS
pEC50 [1],pEC50 [2],pEC50 [3],pEC50 [4],SMILES
7.80,< 6.00,< 6.00,< 6.00,"CCCCc1nc2c(N)nc3ccccc3c2n1Cc1ccc(CN)cc1 [Compound A, reference compound]"
~7.66,< 6.00,< 6.00,< 6.00,"CCCCn1nc2c(N)nc3ccccc3c2c1Cc1ccc(CN)cc1 [Compound 1, 1-(4-(aminomethyl)benzyl)-2-butyl-2H-pyrazolo[3,4-c]quinolin-4-amine]"
